In article PMC9080042, “Biochemical and kinetic characterization of laccase and manganese peroxidase from novel Klebsiella pneumoniae strains and their application in bioethanol production” (RSC Advances, 2018):

Tests used:
Assay in all cases: ABTS oxidation at […] nm, Lineweaver-Burk
Assay type in all cases: biochemical, Klebsiella pneumoniae
laccase (NITW715076) = tested on: T1, laccase (NITW715076); details: 0.1 M citrate buffer pH 5.0, optimum temperature (50 °C); methods call the enzyme partially purified; read-out: Laccase / K m
T1 construct: gene lac; native extracellular enzyme from culture supernatant; ammonium sulphate, dialysis, DEAE-sepharose; 66 kDa by SDS-PAGE; gene not identified

laccase (NITW715076_2) = tested on: T2, laccase (NITW715076_2); details: 0.1 M citrate buffer pH 5.0, optimum temperature (60 °C); methods call the enzyme partially purified; read-out: Laccase / K m
T2 construct: gene lac; native extracellular enzyme from culture supernatant; ammonium sulphate, dialysis, DEAE-sepharose; 66 kDa by SDS-PAGE; gene not identified

laccase (NITW715076_1) = tested on: T3, laccase (NITW715076_1); details: 0.1 M citrate buffer pH 5.0, optimum temperature (50 °C); methods call the enzyme partially purified; read-out: Laccase / K m
T3 construct: gene lac; native extracellular enzyme from culture supernatant; ammonium sulphate, dialysis, DEAE-sepharose; 66 kDa by SDS-PAGE; gene not identified

## CCn1c(=NN=c2sc3cc(S(=O)(=O)O)ccc3n2CC)sc2cc(S(=O)(=O)O)ccc21 [ABTS, 2,2′-azino-bis(3-ethylbenzothiazoline)-6-sulfonic acid]
Laccase (NITW715076)
  Km: 467 µM
Laccase (NITW715076_2)
  Km: 380 µM
Laccase (NITW715076_1)
  Km: 3970 µM
